Values of other authors, collected in article PMC6931083 (Journal of Pharmaceutical Analysis, 2019).

Details: ref 6 (Hentz et al.)

| Substance | Biological activity compared to the native insulin | Decrease in biological activity as compared to the native insulin [%] |
| --- | --- | --- |
| mono-conjugated FITC-insulin (tagged at B1 position): literature (Hentz et al.) mono-conjugated FITC-insulin tagged at B1 position | same biological activity as the native insulin |  |
| di-conjugated FITC-insulin: di-conjugated FITC-insulin at B1 and A1 (literature value, Hentz et al.) |  | 100 |
| A1 conjugated FITC-insulin: literature (Hentz et al.) FITC-insulin conjugated at A1 |  | 10 |
